Data on 32 compounds can be found in patent publication US20240239775A1, “FXR REGULATOR, PREPARATION METHOD THEREFOR, PHARMACEUTICAL COMPOSITION THEREOF AND USE THEREOF” (QINGDAO RUIJI MEDICAL TECHNOLOGY CO., LTD., priority 2021, published 2024).

For orientation: IC50 means the concentration needed to halve the response being measured. A high value points to weaker potency.

In this experiment the target is T1, FXR (Homo sapiens, UniProt Q96RI1).
T1 construct: 5 μL of 20 nM FXR-LBD Complete Coregulator buffer G; purchased ThermoFisher PV4833
T1 sequence (Q96RI1 262-486 limits assumed): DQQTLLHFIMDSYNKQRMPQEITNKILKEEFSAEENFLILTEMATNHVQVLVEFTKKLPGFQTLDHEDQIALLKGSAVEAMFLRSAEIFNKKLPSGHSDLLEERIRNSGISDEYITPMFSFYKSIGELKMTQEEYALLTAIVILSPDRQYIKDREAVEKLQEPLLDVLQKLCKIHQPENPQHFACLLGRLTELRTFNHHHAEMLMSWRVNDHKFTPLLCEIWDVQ
Kind of experiment: FXR antagonist screening by TR-FRET (LanthaScreen TR-FRET FXR co-activation assay kit). The class given is biochemical. To be noted: Table 1.1, FXR antagonistic activity; TR-FRET with CDCA; geometric means of at least two independent runs. The procedure, abridged: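 FXR-LBD (20 nM working solution) mixed with compound, CDCA (200 μM working solution) as agonist, Fluorescein-SRC2-2 and Tb-anti-GST antibody in Coregulator buffer G; 10 h at room temperature. Coactivator recruitment read by TR-FRET, triplicate wells.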
On the technique in general: Time-resolved FRET reads energy transfer from a long-lived donor to a nearby acceptor.
`CCOC(=O)c1oc2ccc(S(=O)(=O)N(CCc3ccccc3)Cc3ccc(C)cc3)cc2c1C` [Example M4-31, ethyl 3-methyl-5-(N-(4-methylbenzyl)-N-phenethylsulfamoyl)benzofuran-2-carboxylate]: the half-inhibitory concentration (IC50) fell in the range of 50 to 100 µM.

Take `CCOC(=O)c1oc2ccc(S(=O)(=O)N(CCc3ccccc3)Cc3ccc(C(F)(F)F)cc3)cc2c1C` [Example M4-32, ethyl 3-methyl-5-(N-(4-trifluoromethylbenzyl)-N-phenethylsulfamoyl)benzofuran-2-carboxylate]: the IC50 was 50 to 100 µM.

The compound `CCOC(=O)c1oc2ccc(S(=O)(=O)N(CCc3ccccc3)Cc3ccc(C#N)cc3)cc2c1C` [Example M4-33, ethyl 3-methyl-5-(N-(4-cyanobenzyl)-N-phenethylsulfamoyl)benzofuran-2-carboxylate] gave an IC50 of 50 to 100 µM.

For `CCOC(=O)c1oc2ccc(S(=O)(=O)N(CCc3ccccc3)Cc3ccc(OC(F)(F)F)cc3)cc2c1C` [Example M4-34, ethyl 3-methyl-5-(N-(4-(trifluoromethoxy)benzyl)-N-phenethylsulfamoyl)benzofuran-2-carboxylate], the IC50 lay within 50 to 100 µM.

Compound `CCOC(=O)c1oc2ccc(S(=O)(=O)N(CCc3ccccc3)Cc3ccc(SC(F)(F)F)cc3)cc2c1C` [Example M4-35, ethyl 3-methyl-5-(N-(4-(trifluoromethylthio)benzyl)-N-phenethylsulfamoyl)benzofuran-2-carboxylate] showed an IC50 of 50 to 100 µM.

For `CCOC(=O)c1oc2ccc(S(=O)(=O)N(CCc3ccccc3)Cc3ccc(C(C)C)cc3)cc2c1C` [Example M4-36, ethyl 3-methyl-5-(N-(4-isopropylbenzyl)-N-phenethylsulfamoyl)benzofuran-2-carboxylate], the half-inhibitory concentration (IC50) fell in the range of 50 to 100 µM.

For `CCOC(=O)c1oc2ccc(S(=O)(=O)N(CCc3ccccc3)Cc3ccc(C(C)(C)C)cc3)cc2c1C` [Example M4-37, ethyl 3-methyl-5-(N-(4-(tert-butyl)benzyl)-N-phenethylsulfamoyl)benzofuran-2-carboxylate], the half-inhibitory concentration (IC50) lay in the range of 50 to 100 µM.

In turn, `CCOC(=O)c1oc2ccc(S(=O)(=O)N(CCc3ccccc3)Cc3ccc(C(C)=O)cc3)cc2c1C` [Example M4-38, ethyl 3-methyl-5-(N-(4-acetylbenzyl)-N-phenethylsulfamoyl)benzofuran-2-carboxylate] gave a 50% inhibitory concentration (IC50) of 50 to 100 µM.

`CCOC(=O)c1oc2ccc(S(=O)(=O)N(CCc3ccccc3)Cc3ccc(C(=O)OC)cc3)cc2c1C` [Example M4-39, ethyl 3-methyl-5-(N-(4-(methoxycarbonyl)benzyl)-N-phenethylsulfamoyl)benzofuran-2-carboxylate] displayed an IC50 of 50 to 100 µM.

In turn, `CCOC(=O)c1oc2ccc(S(=O)(=O)N(CCc3ccccc3)Cc3ccc(C(=O)OC(C)(C)C)cc3)cc2c1C` [Example M4-40, ethyl 3-methyl-5-(N-(4-(tert-butoxycarbonyl)benzyl)-N-phenethylsulfamoyl)benzofuran-2-carboxylate] came in with an IC50 of 50 to 100 µM.

For `CCOC(=O)c1oc2ccc(S(=O)(=O)N(CCc3ccccc3)Cc3ccc(CC(=O)OC)cc3)cc2c1C` [Example M4-41, ethyl 3-methyl-5-(N-(4-(2-methoxy-2-oxoethyl)benzyl)-N-phenethylsulfamoyl)benzofuran-2-carboxylate], the half-inhibitory concentration (IC50) was 50 to 100 µM.

On to `CCOC(=O)c1oc2ccc(S(=O)(=O)N(CCc3ccccc3)Cc3ccc(/C=C/C(=O)OC)cc3)cc2c1C` [Example M4-42, (E)ethyl-3-methyl-5-(N-(4-(3-methoxy-3-oxoprop-1-en-1-yl)benzyl)-N-phenethylsulfamoyl)benzofuran-2-carboxylate], for which the half-inhibitory concentration (IC50) was 50 to 100 µM.

Regarding `CCOC(=O)c1oc2ccc(S(=O)(=O)N(CCc3ccccc3)Cc3cccc4ccccc34)cc2c1C` [Example M4-43, ethyl 3-methyl-5-(N-(naphthalen-1-ylmethyl)-N-phenethylsulfamoyl)benzofuran-2-carboxylate], the half-maximal inhibitory concentration (IC50) lay within 50 to 100 µM.

Compound `CCOC(=O)c1oc2ccc(S(=O)(=O)N(CCc3ccccc3)Cc3cccc4cccnc34)cc2c1C` [Example M4-44, ethyl 3-methyl-5-(N-(quinolin-8-ylmethyl)-N-phenethylsulfamoyl)benzofuran-2-carboxylate] displayed an IC50 of 50 to 100 µM.

`CCOC(=O)c1oc2ccc(S(=O)(=O)N(CCc3ccccc3)Cc3ccc4ccccc4c3)cc2c1C` [Example M4-45, ethyl 3-methyl-5-(N-(naphthalen-2-ylmethyl)-N-phenethylsulfamoyl)benzofuran-2-carboxylate] came in with a concentration for half-maximal inhibition (IC50) of 50 to 100 µM.

`CCOC(=O)c1oc2ccc(S(=O)(=O)N(CCc3ccccc3)Cc3c(F)cccc3F)cc2c1C` [Example M4-46, ethyl 3-methyl-5-(N-(2,6-difluorobenzyl)-N-phenethylsulfamoyl)benzofuran-2-carboxylate] showed an IC50 of 50 to 100 µM.

For `CCOC(=O)c1oc2ccc(S(=O)(=O)N(CCc3ccccc3)Cc3c(F)cccc3Cl)cc2c1C` [Example M4-47, ethyl 3-methyl-5-(N-(2-fluoro-6-chlorobenzyl)-N-phenethylsulfamoyl)benzofuran-2-carboxylate], the half-maximal inhibitory concentration (IC50) was 50 to 100 µM.

`CCOC(=O)c1oc2ccc(S(=O)(=O)N(CCc3ccccc3)Cc3c(F)cccc3C(F)(F)F)cc2c1C` [Example M4-48, ethyl 3-methyl-5-(N-(2-fluoro-6-(trifluoromethyl)benzyl)-N-phenethylsulfamoyl)benzofuran-2-carboxylate] showed a half-maximal inhibitory concentration (IC50) of 50 to 100 µM.

In turn, `CCOC(=O)c1oc2ccc(S(=O)(=O)N(CCc3ccccc3)Cc3c(Cl)cccc3Cl)cc2c1C` [Example M4-49, ethyl 3-methyl-5-(N-(2,6-dichlorobenzyl)-N-phenethylsulfamoyl)benzofuran-2-carboxylate] yielded a 50% inhibitory concentration (IC50) of 50 to 100 µM.

`CCOC(=O)c1oc2ccc(S(=O)(=O)N(CCc3ccccc3)Cc3c(C)cccc3C)cc2c1C` [Example M4-50, ethyl 3-methyl-5-(N-(2,6-dimethylbenzyl)-N-phenethylsulfamoyl)benzofuran-2-carboxylate] came in with a 50% inhibitory concentration (IC50) of 50 to 100 µM.

In the case of `CCOC(=O)c1oc2ccc(S(=O)(=O)N(CCc3ccccc3)Cc3ccc(F)cc3F)cc2c1C` [Example M4-51, ethyl 3-methyl-5-(N-(2,4-difluorobenzyl)-N-phenethylsulfamoyl)benzofuran-2-carboxylate], the half-maximal inhibitory concentration (IC50) lay in the range of 50 to 100 µM.

`CCOC(=O)c1oc2ccc(S(=O)(=O)N(CCc3ccccc3)Cc3ccc(Cl)cc3F)cc2c1C` [Example M4-52, ethyl 3-methyl-5-(N-(2-fluoro-4-chlorobenzyl)-N-phenethylsulfamoyl)benzofuran-2-carboxylate] showed an IC50 of 50 to 100 µM.

In the case of `CCOC(=O)c1oc2ccc(S(=O)(=O)N(CCc3ccccc3)Cc3ccc(Br)cc3F)cc2c1C` [Example M4-53, ethyl 3-methyl-5-(N-(2-fluoro-4-bromobenzyl)-N-phenethylsulfamoyl)benzofuran-2-carboxylate], the 50% inhibitory concentration (IC50) was 50 to 100 µM.

On to `CCOC(=O)c1oc2ccc(S(=O)(=O)N(CCc3ccccc3)Cc3ccc(C#N)cc3F)cc2c1C` [Example M4-54, ethyl 3-methyl-5-(N-(2-fluoro-4-cyanobenzyl)-N-phenethylsulfamoyl)benzofuran-2-carboxylate], for which the 50% inhibitory concentration (IC50) lay in the range of 50 to 100 µM.

For `CCOC(=O)c1oc2ccc(S(=O)(=O)N(CCc3ccccc3)Cc3ccc(C(F)(F)F)cc3F)cc2c1C` [Example M4-55, ethyl 3-methyl-5-(N-(2-fluoro-4-(trifluoromethyl)benzyl)-N-phenethylsulfamoyl)benzofuran-2-carboxylate], the IC50 fell in the range of 50 to 100 µM.

Consider `CCOC(=O)c1oc2ccc(S(=O)(=O)N(CCc3ccccc3)Cc3ccc(F)cc3Cl)cc2c1C` [Example M4-56, ethyl 3-methyl-5-(N-(2-chloro-4-fluorobenzyl)-N-phenethylsulfamoyl)benzofuran-2-carboxylate], for which the IC50 is 50 to 100 µM.

As for `CCOC(=O)c1oc2ccc(S(=O)(=O)N(CCc3ccccc3)Cc3ccc(F)cc3C(F)(F)F)cc2c1C` [Example M4-57, ethyl 3-methyl-5-(N-(2-(trifluoromethyl)-4-fluorobenzyl)-N-phenethylsulfamoyl)benzofuran-2-carboxylate], the IC50 lay in the range of 50 to 100 µM.

For the compound `CCOC(=O)c1oc2ccc(S(=O)(=O)N(CCc3ccccc3)Cc3ccc(C(F)(F)F)cc3C(F)(F)F)cc2c1C` [Example M4-58, ethyl 3-methyl-5-(N-(2,4-bis(trifluoromethyl)benzyl)-N-phenethylsulfamoyl)benzofuran-2-carboxylate], the IC50 was in the range of 50 to 100 µM.

On to `CCOC(=O)c1oc2ccc(S(=O)(=O)N(CCc3ccccc3)Cc3ccc(Br)cc3C(F)(F)F)cc2c1C` [Example M4-59, ethyl 3-methyl-5-(N-(2-trifluoromethyl-4-bromobenzyl)-N-phenethylsulfamoyl)benzofuran-2-carboxylate], for which the half-maximal inhibitory concentration (IC50) was in the range of 50 to 100 µM.

In the case of `CCOC(=O)c1oc2ccc(S(=O)(=O)N(CCc3ccccc3)Cc3ccc(Cl)cc3Cl)cc2c1C` [Example M4-60, ethyl 3-methyl-5-(N-(2,4-dichlorobenzyl)-N-phenethylsulfamoyl)benzofuran-2-carboxylate], the IC50 was 50 to 100 µM.

Take `CCOC(=O)c1oc2ccc(S(=O)(=O)N(CCc3ccccc3)Cc3cc(F)ccc3C)cc2c1C` [Example M4-61, ethyl 3-methyl-5-(N-(2-methyl-5-fluorobenzyl)-N-phenethylsulfamoyl)benzofuran-2-carboxylate]: the 50% inhibitory concentration (IC50) was 50 to 100 µM.

`CCOC(=O)c1oc2ccc(S(=O)(=O)N(CCc3ccccc3)Cc3c(F)cc(Cl)cc3F)cc2c1C` [Example M4-62, ethyl 3-methyl-5-(N-(2,6-difluoro-4-chlorobenzyl)-N-phenethylsulfamoyl)benzofuran-2-carboxylate] returned an IC50 of 50 to 100 µM.
